The target of one assay is PDE4B (Homo sapiens, UniProt Q07343). In words: In-vitro assay for PDE4 enzymes, real-time enzyme-coupled spectrophotometric assay, PDE4B Activity (Table 10). The assay is classed as biochemical.
In another assay the target is PDE4 (Homo sapiens, UniProt Q08499). Put plainly: In-vitro assay for PDE4 enzymes, real-time enzyme-coupled spectrophotometric assay (Table 9). The assay is classed as biochemical.
Where [1] appears, read: human PDE4B (hPDE4B), enzyme-coupled spectrophotometric assay, read-out: PDE4B Activity, hPDE4B.
Setting [2] is: human PDE4D, activity class, Table 9, read-out: hPDE4D.

Molecules are shown by their SMILES. Structures can show the parent of a compound that is named as a salt. Where two headings read alike, the source gives them in different places.

Sequence of PDE4 (Q08499 whole entry): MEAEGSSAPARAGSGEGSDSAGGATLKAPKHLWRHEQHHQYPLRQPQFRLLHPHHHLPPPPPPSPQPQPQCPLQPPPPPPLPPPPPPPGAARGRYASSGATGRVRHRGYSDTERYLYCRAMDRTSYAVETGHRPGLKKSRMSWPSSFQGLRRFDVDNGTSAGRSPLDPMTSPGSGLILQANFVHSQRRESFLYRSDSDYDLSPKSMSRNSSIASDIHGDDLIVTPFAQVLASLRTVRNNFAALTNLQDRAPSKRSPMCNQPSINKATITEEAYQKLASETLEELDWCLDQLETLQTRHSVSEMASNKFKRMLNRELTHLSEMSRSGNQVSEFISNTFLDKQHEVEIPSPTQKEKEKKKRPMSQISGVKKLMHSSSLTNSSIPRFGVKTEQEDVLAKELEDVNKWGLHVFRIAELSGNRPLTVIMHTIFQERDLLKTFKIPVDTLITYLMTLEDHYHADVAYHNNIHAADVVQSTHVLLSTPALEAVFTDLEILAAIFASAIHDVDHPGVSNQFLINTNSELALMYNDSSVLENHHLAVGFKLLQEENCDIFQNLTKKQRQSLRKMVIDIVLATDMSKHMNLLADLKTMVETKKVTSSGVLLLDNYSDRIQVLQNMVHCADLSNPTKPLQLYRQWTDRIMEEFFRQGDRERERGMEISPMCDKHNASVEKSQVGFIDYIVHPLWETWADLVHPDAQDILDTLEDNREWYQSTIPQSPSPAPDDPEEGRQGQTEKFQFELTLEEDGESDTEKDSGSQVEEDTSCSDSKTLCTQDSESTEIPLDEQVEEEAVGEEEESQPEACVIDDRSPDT
Sequence of PDE4B (Q07343 whole entry): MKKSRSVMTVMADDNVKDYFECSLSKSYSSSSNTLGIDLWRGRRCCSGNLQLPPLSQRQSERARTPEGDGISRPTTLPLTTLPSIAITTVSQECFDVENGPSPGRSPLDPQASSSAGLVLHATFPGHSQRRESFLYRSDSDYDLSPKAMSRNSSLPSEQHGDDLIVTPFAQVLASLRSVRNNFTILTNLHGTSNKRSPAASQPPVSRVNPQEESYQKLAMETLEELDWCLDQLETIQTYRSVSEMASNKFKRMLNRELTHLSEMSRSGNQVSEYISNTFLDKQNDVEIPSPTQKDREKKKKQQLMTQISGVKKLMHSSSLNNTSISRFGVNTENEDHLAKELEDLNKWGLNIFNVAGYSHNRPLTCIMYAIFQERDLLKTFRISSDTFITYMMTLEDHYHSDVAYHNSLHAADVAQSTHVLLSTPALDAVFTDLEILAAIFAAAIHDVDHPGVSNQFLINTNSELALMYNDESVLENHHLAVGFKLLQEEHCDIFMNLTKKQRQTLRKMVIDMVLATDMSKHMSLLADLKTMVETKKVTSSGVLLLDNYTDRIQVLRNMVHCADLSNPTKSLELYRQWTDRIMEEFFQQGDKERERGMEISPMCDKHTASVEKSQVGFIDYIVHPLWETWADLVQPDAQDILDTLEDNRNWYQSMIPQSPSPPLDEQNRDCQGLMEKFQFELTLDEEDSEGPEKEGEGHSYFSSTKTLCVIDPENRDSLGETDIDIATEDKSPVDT

As to `CCOc1ccc(Cc2ccc(N)cc2)c(F)c1-c1cccc(C(C)=O)c1` [P-334, 1-[3′-(4-Amino-benzyl)-6′-ethoxy-2′-fluoro-biphenyl-3-yl]-ethanone; hydrochloride], the IC50 at PDE4B (setting [1]) and at PDE4 (setting [2]) was < 5 µM in each case.

Consider `CCOc1ccc(Cc2ccc(NC(N)=O)cc2)c(F)c1-c1cccc(C(C)=O)c1` [P-335, [4-(3′-Acetyl-6-ethoxy-2-fluoro-biphenyl-3-ylmethyl)-phenyl]-urea], for which the IC50 at PDE4B (setting [1]) and on PDE4 (setting [2]) was < 5 µM in each case.

As to `CNc1ccc(Cc2ccc(OC)c(-c3cccc(C(C)=O)c3)c2F)cn1` [P-336], the IC50 at PDE4B (setting [1]) and on PDE4 (setting [2]) was < 5 µM throughout.

In the case of `COc1ccc(Cc2ccc(N(C)C(N)=O)cc2)c(F)c1-c1cccc(C(C)=O)c1` [P-338, 1-[4-(3′-Acetyl-2-fluoro-6-methoxy-biphenyl-3-ylmethyl)-phenyl]-1-methyl-urea], the IC50 on PDE4B (setting [1]) and at PDE4 (setting [2]) was < 5 µM in each case.

In the case of `CCNc1ccc(Cc2ccc(OC)c(-c3cccc(C(C)=O)c3)c2F)cn1` [P-339], the IC50 at PDE4B (setting [1]) and at PDE4 (setting [2]) was < 5 µM throughout.

As for `COc1ccc(Cc2csc(N)n2)c(F)c1-c1cccc(Cl)c1` [P-341, 4-(3′-Chloro-2-fluoro-6-methoxy-biphenyl-3-ylmethyl)-thiazol-2-ylamine], the IC50 on PDE4B (setting [1]) and at PDE4 (setting [2]) was < 5 µM throughout.

Take `COC(=O)Nc1nnc(Cc2ccc(OC)c(-c3cccc(Cl)c3)c2F)s1` [P-342, Methyl[5-(3′-Chloro-2-fluoro-6-methoxy-biphenyl-3-ylmethyl)-[1,3,4]thiadiazol-2-yl]-carbamate]: the IC50 on PDE4B (setting [1]) and on PDE4 (setting [2]) was < 5 µM each time.

Take `CCNC(=O)Nc1nnc(Cc2ccc(OC)c(-c3cccc(Cl)c3)c2F)s1` [P-343, 1-[5-(3′-Chloro-2-fluoro-6-methoxy-biphenyl-3-ylmethyl)-[1,3,4]thiadiazol-2-yl]-3-ethyl-urea]: the IC50 at PDE4B (setting [1]) and on PDE4 (setting [2]) was < 5 µM in each case.

As to `COc1ccc(Cc2ccc(CN)nc2)c(F)c1-c1cccc(Cl)c1` [P-344, C-[5-(3′-Chloro-2-fluoro-6-methoxy-biphenyl-3-ylmethyl)-pyridin-2-yl]-methylamine], the IC50 on PDE4B (setting [1]) and at PDE4 (setting [2]) was < 5 µM each time.

Consider `COc1ccc(Cc2ccc(NC(C)=O)nc2)c(F)c1-c1cccc(C(C)=O)c1` [P-345], for which the IC50 on PDE4B (setting [1]) and at PDE4 (setting [2]) was < 5 µM each time.

For `CCNC(=O)Nc1nc(Cc2ccc(OC)c(-c3cccc(Cl)c3)c2F)cs1` [P-346, 1-[4-(3′-Chloro-2-fluoro-6-methoxy-biphenyl-3-ylmethyl)-thiazol-2-yl]-3-ethyl-urea], the IC50 at PDE4B (setting [1]) is 5 to 20 µM; at PDE4 (setting [2]), < 5 µM.

Turning to `COc1ccc(Cc2ccc(NC(N)=O)cc2)c(F)c1-c1cccc(Br)c1` [P-347], the IC50 on PDE4B (setting [1]) and on PDE4 (setting [2]) was < 5 µM in each case.

Consider `COc1ccc(Cc2nnc(NC(N)=O)s2)c(F)c1-c1cccc(Cl)c1` [P-352, [5-(3′-Chloro-2-fluoro-6-methoxy-biphenyl-3-ylmethyl)-[1,3,4]thiadiazol-2-yl]-urea], for which the IC50 at PDE4B (setting [1]) and on PDE4 (setting [2]) was < 5 µM each time.

In the case of `COc1ccc(Cc2ccc(C#N)nc2)c(F)c1-c1cccc(Cl)c1` [P-355], the IC50 at PDE4B (setting [1]) and at PDE4 (setting [2]) was < 5 µM in each case.

In the case of `CCNC(=O)Nc1ccc(Cc2ccc(OC)c(-c3cccc(Cl)c3)c2F)cn1` [P-356], the IC50 on PDE4B (setting [1]) and on PDE4 (setting [2]) was < 5 µM throughout.

In the case of `CCOC(=O)Nc1ccc(Cc2ccc(OC)c(-c3cccc(Cl)c3)c2F)cn1` [P-357], the IC50 at PDE4B (setting [1]) and on PDE4 (setting [2]) was < 5 µM throughout.

As for `CCOC(=O)N(CC)c1ccc(Cc2ccc(OC)c(-c3cccc(Cl)c3)c2F)cn1` [P-359], the IC50 at PDE4B (setting [1]) is 5 to 20 µM; at PDE4 (setting [2]), < 5 µM.

For the molecule `COc1ccc(Cc2ccc(N3CCNC3=O)nc2)c(F)c1-c1cccc(C(C)=O)c1` [P-361, 1-[5-(3′-Acetyl-2-fluoro-6-methoxy-biphenyl-3-ylmethyl)-pyridin-2-yl]-imidazolidin-2-one], the IC50 on PDE4B (setting [1]) and at PDE4 (setting [2]) was < 5 µM each time.

Consider `COc1ccc(Cc2cnc(NC(N)=O)nc2)c(F)c1-c1cccc(C(C)=O)c1` [P-362, [5-(3′-Acetyl-2-fluoro-6-methoxy-biphenyl-3-ylmethyl)-pyrimidin-2-yl]-urea], for which the IC50 at PDE4B (setting [1]) and at PDE4 (setting [2]) was < 5 µM in each case.

As to `COc1ccc(Cc2cnc(NC(=O)NCCCl)nc2)c(F)c1-c1cccc(C(C)=O)c1` [P-366, 1-[5-(3′-Acetyl-2-fluoro-6-methoxy-biphenyl-3-ylmethyl)-pyrimidin-2-yl]-3-(2-chloro-ethyl)-urea], the IC50 against PDE4B and at PDE4 was < 5 µM in each case.

Regarding `CCOC(=O)NCc1ccc(Cc2ccc(OC)c(-c3cccc(Cl)c3)c2F)cn1` [P-367, [5-(3′-Chloro-2-fluoro-6-methoxy-biphenyl-3-ylmethyl)-pyridin-2-ylmethyl]-carbamic acid ethyl ester], the IC50 on PDE4B (setting [1]) and on PDE4 (setting [2]) was < 5 µM in each case.

On to `COc1ccc(Cc2ccc(CNC(N)=O)nc2)c(F)c1-c1cccc(Cl)c1` [P-368, [5-(3′-Chloro-2-fluoro-6-methoxy-biphenyl-3-ylmethyl)-pyridin-2-ylmethyl]-urea], for which the IC50 at PDE4B (setting [1]) and at PDE4 (setting [2]) was < 5 µM each time.

With `COc1ccc(Cc2cnc(N)s2)c(F)c1-c1cccc(Cl)c1` [P-369, 5-(3′-Chloro-2-fluoro-6-methoxy-biphenyl-3-ylmethyl)-thiazol-2-ylamine], the IC50 on PDE4B (setting [1]) and at PDE4 (setting [2]) was < 5 µM throughout.

Turning to `COc1ccc(CN2CCN(C(N)=O)CC2)c(F)c1-c1cccc(Cl)c1` [P-370], the IC50 is 5 to 20 µM on PDE4B (setting [1]) and < 5 µM at PDE4 (setting [2]).

`COc1ccc(Cc2ccc(CNC(=O)N(C)C)nc2)c(F)c1-c1cccc(Cl)c1` [P-371, 3-[5-(3′-Chloro-2-fluoro-6-methoxy-biphenyl-3-ylmethyl)-pyridin-2-ylmethyl]-1,1-dimethyl-urea hydrochloride]: the IC50 at PDE4B (setting [1]) and at PDE4 (setting [2]) was < 5 µM in each case.

Take `CCNC(=O)NCc1ccc(Cc2ccc(OC)c(-c3cccc(Cl)c3)c2F)cn1` [P-372, 1-[5-(3′-Chloro-2-fluoro-6-methoxy-biphenyl-3-ylmethyl)-pyridin-2-ylmethyl]-3-ethyl-urea]: the IC50 at PDE4B (setting [1]) and on PDE4 (setting [2]) was < 5 µM throughout.

With `COc1ccc(Cc2ccc(CNC(=O)N3CCN(C)CC3)nc2)c(F)c1-c1cccc(Cl)c1` [P-373, 4-Methyl-piperazine-1-carboxylic acid [5-(3′-chloro-2-fluoro-6-methoxy-biphenyl-3-ylmethyl)-pyridin-2-ylmethyl]-amide], the IC50 on PDE4B (setting [1]) was 5 to 20 µM; at PDE4 (setting [2]), < 5 µM.

`COc1ccc(Cc2ccc(CN3CCNC3=O)nc2)c(F)c1-c1cccc(Cl)c1` [P-374, 1-[5-(3′-Chloro-2-fluoro-6-methoxy-biphenyl-3-ylmethyl)-pyridin-2-ylmethyl]-imidazolidin-2-one]: the IC50 on PDE4B (setting [1]) and at PDE4 (setting [2]) was < 5 µM throughout.

Regarding `COc1ccc(Cc2ccc(CN3CCN(C)C3=O)nc2)c(F)c1-c1cccc(Cl)c1` [P-375, 1-[5-(3′-Chloro-2-fluoro-6-methoxy-biphenyl-3-ylmethyl)-pyridin-2-ylmethyl]-3-methyl-imidazolidin-2-one], the IC50 at PDE4B (setting [1]) and on PDE4 (setting [2]) was < 5 µM each time.

Source of the values: US8791267B2, “Biaryl PDE4 inhibitors for treating inflammatory, cardiovascular and CNS disorders” (Decode Genetics EHF, priority 2007, dated 2014).
